Legend:
Aromatase [1] = molecular target: T1, Aromatase (Homo sapiens, UniProt P11511); test: Inhibition of aromatase (unknown origin) at 50 uM
T1 sequence (P11511 whole entry): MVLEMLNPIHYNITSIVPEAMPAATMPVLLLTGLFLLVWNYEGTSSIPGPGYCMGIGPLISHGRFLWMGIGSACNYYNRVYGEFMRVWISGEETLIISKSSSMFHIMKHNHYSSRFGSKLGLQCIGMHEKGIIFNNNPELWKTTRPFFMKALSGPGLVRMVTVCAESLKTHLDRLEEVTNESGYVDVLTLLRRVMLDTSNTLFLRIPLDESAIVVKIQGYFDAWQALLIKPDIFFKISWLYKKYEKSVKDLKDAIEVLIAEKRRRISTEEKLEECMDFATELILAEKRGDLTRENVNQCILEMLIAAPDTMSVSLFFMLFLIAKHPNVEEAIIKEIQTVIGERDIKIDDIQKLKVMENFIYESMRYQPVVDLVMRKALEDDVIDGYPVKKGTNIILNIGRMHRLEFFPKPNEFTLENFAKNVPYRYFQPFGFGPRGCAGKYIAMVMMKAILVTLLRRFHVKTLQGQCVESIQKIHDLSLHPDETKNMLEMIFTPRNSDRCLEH

Aromatase [2] = molecular target: T1, Aromatase; test: Inhibition of aromatase (unknown origin); design: inhibition (INH): concentration or dose not given beside the values; conditions: human
Aromatase [3] = molecular target: T2, Aromatase (Rattus norvegicus, UniProt P22443); test: Competitive inhibition of aromatase in ovarian fraction extracted from PMSG pretreated Wistar rat by double reciprocal plot analysis in presence of testosterone
T2 sequence (P22443 whole entry): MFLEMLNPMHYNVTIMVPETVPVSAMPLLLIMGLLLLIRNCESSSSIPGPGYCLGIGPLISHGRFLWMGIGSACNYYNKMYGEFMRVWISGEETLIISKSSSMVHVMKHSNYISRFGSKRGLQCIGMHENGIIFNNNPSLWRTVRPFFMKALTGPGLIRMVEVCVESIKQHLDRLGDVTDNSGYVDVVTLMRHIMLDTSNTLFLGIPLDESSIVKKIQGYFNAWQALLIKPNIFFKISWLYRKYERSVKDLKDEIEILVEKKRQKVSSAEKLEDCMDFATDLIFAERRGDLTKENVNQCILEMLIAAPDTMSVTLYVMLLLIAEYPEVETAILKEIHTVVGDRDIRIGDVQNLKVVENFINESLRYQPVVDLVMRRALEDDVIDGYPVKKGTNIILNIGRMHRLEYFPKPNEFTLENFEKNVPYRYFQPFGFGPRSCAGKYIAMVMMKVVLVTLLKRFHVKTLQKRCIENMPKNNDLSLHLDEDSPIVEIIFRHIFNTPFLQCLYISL

[4] = Antitumor activity against NMU-induced mammary tumor in rat; format: functional
Aromatase [5] = molecular target: T1, Aromatase
Aromatase [6] = molecular target: T1, Aromatase; test: Time dependent inhibition of human aromatase extracted from placental microsomes using [1beta,2beta-3H]androstenedione as substrate by scintillation counting analysis
Aromatase [7] = molecular target: T1, Aromatase; test: Inhibition of aromatase (unknown origin) at 5 uM relative to control
Aromatase [8] = molecular target: T1, Aromatase; test: Competitive inhibition of human aromatase extracted from placental microsomes by Dixon plot analysis in presence of [1,2-3H]androstenedione
Aromatase [9] = molecular target: T1, Aromatase; test: Inhibition of human aromatase extracted from placental microsomes
Aromatase [10] = molecular target: T1, Aromatase; test: Inhibition of human aromatase extracted from placental microsomes at 520 nM after 10 mins
Aromatase [11] = molecular target: T1, Aromatase; test: Inhibition of human aromatase extracted from placental microsomes using [1beta,2beta-3H]androstenedione as substrate
Aromatase [12] = molecular target: T1, Aromatase; test: Inhibition of human aromatase extracted from placental microsomes using [1-3H]androstenedione as substrate
Aromatase [13] = molecular target: T1, Aromatase; test: Inhibition of human aromatase extracted from placental microsomes using [1-3H]androstenedione as substrate at […]
Aromatase [14] = molecular target: T1, Aromatase; test: Inhibition of human aromatase extracted from placental microsomes using [1beta,2beta-3H]testosterone as substrate measured at 7 to 21 mins by scintillation counting analysis
Aromatase [15] = molecular target: T1, Aromatase; test: Time dependent inactivation of human aromatase extracted from placental microsomes using [1,2-3H]androst-4-ene-3,17-dione
Aromatase [16] = molecular target: T1, Aromatase; test: Time dependent inhibition of human aromatase extracted from placental microsomes using [1beta,2beta-3H]-testosterone as substrate after 10 mins by scintillation counting analysis
Aromatase [17] = molecular target: T1, Aromatase; test: Inhibition of human aromatase extracted from placental microsomes using [1beta-3H]androstenedione as substrate after 15 mins by scintillation counting analysis
Aromatase [18] = molecular target: T2, Aromatase; test: Inhibition of aromatase in denucleated ovarian fraction extracted from PMSG pretreated Wistar rat by using testosterone as substrate after 15 mins by radio immuno assay
Aromatase [19] = molecular target: T2, Aromatase; test: Inhibition of rat aromatase extracted from ovarian fraction using testosterone as substrate
Aromatase [20] = molecular target: T1, Aromatase; test: Inhibition of human aromatase extracted from placental microsomes using [1beta,2beta-3H]androstenedione as substrate after 10 mins
Aromatase [21] = molecular target: T1, Aromatase; test: Inhibition of human aromatase extracted from placental microsomes using [1beta-3H]androstenedione as substrate after 20 mins
Aromatase [22] = molecular target: T1, Aromatase; remark: listed apart in the source
Aromatase [23] = molecular target: T1, Aromatase; test: Irreversible inhibition of human aromatase extracted from placental microsomes by double reciprocal plot analysis in presence of [1beta,2beta-3H]androstenedione
Aromatase [24] = molecular target: T1, Aromatase; remark: listed apart in the source
Aromatase [25] = molecular target: T1, Aromatase; test: Inhibition of human aromatase extracted from placental microsomes using 4-[14C]androstenedione/androstenedione as substrate assessed as estrogen formation after 30 mins in NADPH-generating system; conditions: 0.5 h
Aromatase [26] = molecular target: T2, Aromatase; test: Inhibition of rat aromatase extracted from PMSG-primed ovarian fraction using 4-[14C]androstenedione/androstenedione as substrate assessed as estrogen formation after 30 mins in NADPH-generating system; conditions: 0.5 h
Aromatase [27] = molecular target: T1, Aromatase; test: Inhibition of human aromatase extracted from placental microsomes using [1,2-3H]androstenedione as substrate after 20 mins by scintillation counting analysis
Aromatase [28] = molecular target: T1, Aromatase; test: Irreversible inhibition of human aromatase extracted from placental microsomes; conditions: read-out: Ki(app)
Aromatase [29] = molecular target: T1, Aromatase; test: Inhibition of human aromatase extracted from placental microsomes using [1beta-3H]androstenedione as substrate after 20 mins by radiometric assay
Aromatase [30] = molecular target: T2, Aromatase; test: Inhibition of aromatase in denucleated ovarian fraction extracted from PMSG pretreated Wistar rat by using testosterone as substrate at 1 uM
Aromatase [31] = molecular target: T2, Aromatase; test: Inhibition of aromatase in denucleated ovarian fraction extracted from PMSG pretreated Wistar rat using testosterone as substrate at 50 uM by radioimmuno assay

C[C@]12CCC(=O)C=C1C(=O)C[C@@H]1[C@@H]2CC[C@]2(C)/C(=C/c3ccccn3)CC[C@@H]12
inhibition at 50 µM (Aromatase [1]): 108%

CC(=O)[C@@]1(C)CC[C@H]2[C@@H](CCC3=CC(=O)CC[C@@]32C)C1CC#N (some centres undefined)
inhibition (INH) (Aromatase [2]): 46.5%
Ki (Aromatase [3]): 270 nM

C[C@]12CCC(=O)C(F)=C1CC[C@@H]1[C@@H]2CC[C@]2(C)C(=O)CC[C@@H]12
Activity [4]: 44%
Ki (Aromatase [5]): 15 nM

C[C@]12CC[C@H]3[C@@H](CCC4=CC(=O)CC[C@@]43CS)[C@@H]1CCC2=O
Ki (Aromatase [6]): 34 nM

CC(=O)O[C@H]1CC[C@@]2(C)C(=CC[C@H]3C(CC#N)[C@@](C)(CBr)CC[C@@H]32)C1 (some centres undefined)
inhibition at 5 µM (Aromatase [7]): 19.4%

C[C@]12CC[C@H]3[C@@H](CCC4=CCCC[C@@]43CO)[C@@H]1CCC2=O
Ki (Aromatase [8]): 12.5 nM

C[C@]12CC[C@H]3[C@@H](Cc4nn(Cc5ccccc5)c5c4[C@]3(C)CCC5=O)[C@@H]1CC[C@@H]2O
IC50 (Aromatase [9]): 245 nM

C[C@]12CCC(=O)C=C1[C@@H](Br)C[C@@H]1[C@@H]2CC[C@]2(C)C(=O)CC[C@@H]12
inhibition at […] (Aromatase [10]): 45%

C[C@]12CC=C3[C@@H](CCC4=CC(=O)CC[C@@]43CCSCF)[C@@H]1CCC2=O
IC50 (Aromatase [11]): 50 nM

C[C@]12CC[C@H]3[C@@H](Cc4n[nH]c5c4[C@]3(C)CCC5=O)[C@@H]1CC[C@@H]2O
IC50 (Aromatase [9]): 236 nM

C=C1C=C2CC[C@@H]3[C@H](CC[C@]4(C)C(=O)CC[C@@H]34)[C@@]2(C=O)CC1
inhibition (INH) (Aromatase [12]): 50%

C[C@]12CCC(=O)C=C1C[C@@H](Sc1ccc(Br)cc1)[C@@H]1[C@@H]2CC[C@]2(C)C(=O)CC[C@@H]12
inhibition at […] (Aromatase [13]): 45%

C[C@]12CCC(=O)C=C1CC[C@@H]1[C@@H]2CC[C@]2(C)C(=O)[C@H](Br)C[C@@H]12
inhibition at […] (Aromatase [10]): 95%

CC(=O)O[C@H]1CC[C@@]2(C)C(=C/C(=N\OCCCn3ccnc3)[C@H]3[C@@H]4CC[C@H](OC(C)=O)[C@@]4(C)CC[C@@H]32)C1
IC50 (Aromatase [14]): 12000 nM

C[C@]12CC[C@H]3[C@@H](CCC4=CC(=O)CC[C@@]43C(F)F)[C@@H]1CCC2=O
Ki (Aromatase [15]): 1000 nM

C[C@]12CC[C@H]3[C@@H](/C(=N/OCCCn4ccnc4)C=C4C[C@@H](O)CC[C@@]43C)[C@@H]1CC[C@@H]2O
IC50 (Aromatase [14]): 3100 nM

CS[C@]12C=CC(=O)C=C1CC[C@H]1[C@@H]3CC[C@H](O)[C@@]3(C)CC[C@@H]12
Ki (Aromatase [16]): 610 nM

C[C@]12CCC(=O)C=C1C[C@@H](Sc1ccc(Cl)cc1)[C@@H]1[C@@H]2CC[C@]2(C)C(=O)CC[C@@H]12
inhibition at […] (Aromatase [13]): 45%

C[C@]12CC[C@H](O)C(N=[N+]=[N-])=C1CC[C@@H]1[C@@H]2CC[C@]2(C)/C(=N/O)CC[C@@H]12
INH (Aromatase [17]): 32.8%

C[C@@H]1OC(=O)C[C@H]2[C@@H]3CCC4=CC(=O)CC[C@]4(C)[C@H]3CC[C@]12C
IC50 (Aromatase [18]): 280 nM

C[C@]12C=CC(=O)C=C1C=C[C@@H]1[C@@H]2CC[C@@]2(C)[C@H]1CC[C@@]2(O)Cc1ccccn1
inhibition (INH) (Aromatase [19]): 51.5%

C[C@]12CCC(=O)C=C1CC[C@@H]1[C@@H]2CC[C@@]2(C)[C@H]1CC[C@@]2(O)Cc1ccccn1
inhibition (INH) (Aromatase [19]): 51.5%

C[C@@H]1OC(=O)C[C@H]2[C@@H]3C=C[C@H]4C[C@@H](O)CC[C@]4(C)[C@H]3CC[C@]12C
IC50 (Aromatase [18]): 250 nM

C[C@]12CCC(=O)C(SCF)=C1CC[C@@H]1[C@@H]2CC[C@]2(C)C(=O)CC[C@@H]12
IC50 (Aromatase [20]): 800 nM

C[C@]12CCC(=O)C(c3ccc(OS(N)(=O)=O)cc3)=C1CC[C@@H]1[C@@H]2CC[C@]2(C)C(=O)CC[C@@H]12
IC50 (Aromatase [21]): 990 nM
Ki (Aromatase [22]): 97 nM

C[C@]12CC[C@H]3[C@@H](CCC4=C(F)C(=O)CC[C@@H]43)[C@@H]1CCC2=O
Ki (Aromatase [5]): 90 nM

CSCC[C@]12CCC(=O)C=C1CC[C@@H]1C2=CC[C@]2(C)C(=O)CC[C@@H]12
IC50 (Aromatase [11]): 12 nM

C[C@]12CC[C@H]3[C@@H](CCC4=CC(=O)CC[C@@]43S)[C@@H]1CC[C@@H]2O
Ki (Aromatase [23]): 106 nM

C[C@]12C=CC(=O)C=C1C=C(c1ccccc1)[C@@H]1[C@@H]2CC[C@]2(C)C(=O)CC[C@@H]12
Ki (Aromatase [24]): 2220 nM

C[C@]12C=CC(=O)C(O)=C1C=C[C@@H]1[C@@H]2CC[C@]2(C)C(=O)CC[C@@H]12
inhibition (INH) (Aromatase [25]): 30%
inhibition (INH) (Aromatase [26]): 30%

C[C@]12C=CC(=O)C(O)=C1CC[C@@H]1[C@@H]2CC[C@]2(C)C(=O)CC[C@@H]12
inhibition (INH) (Aromatase [25]): 30%
inhibition (INH) (Aromatase [26]): 30%

C[C@]12CCC(=O)C(O)=C1C=C[C@@H]1[C@@H]2CC[C@]2(C)C(=O)CC[C@@H]12
inhibition (INH) (Aromatase [25]): 30%
inhibition (INH) (Aromatase [26]): 30%

C[C@]12CCC(=O)C=C1[C@@H](OC(=O)CBr)C[C@@H]1[C@@H]2CC[C@]2(C)C(=O)CC[C@@H]12
IC50 (Aromatase [27]): 2800 nM

C=C1C=C2CC[C@@H]3[C@H](CC[C@]4(C)C(=O)CC[C@@H]34)[C@@]2(CO)CC1
inhibition (INH) (Aromatase [12]): 80%

C[C@]12CCC(=O)C(O)=C1CC[C@@H]1[C@@H]2CC[C@]2(C)C(=O)CC[C@@H]12 [FORMESTANE]
Ki (Aromatase [28]): 43 nM
IC50 (Aromatase [29]): 1200 nM
Activity [4]: 67%
inhibition at 1 µM (Aromatase [30]): 99.2%

C[C@]12CC[C@@H]3c4ccc(OCc5ccccc5)cc4CC[C@H]3[C@@H]1CC(=O)OC2
inhibition at 50 µM (Aromatase [31]): 26.7%

C[C@]12CC[C@H]3O[C@H]3[C@@H]1CC[C@@H]1[C@@H]2CC[C@]2(C)C(=O)CC[C@@H]12
IC50 (Aromatase [21]): 180 nM

C[C@]12CCC(=O)C(SCCl)=C1CC[C@@H]1[C@@H]2CC[C@]2(C)C(=O)CC[C@@H]12
IC50 (Aromatase [20]): 940 nM

C[C@]12CCC(=O)C(O)=C1C=C[C@@H]1[C@@H]2CC[C@]2(C)/C(=C/c3ccccn3)CC[C@@H]12
inhibition at 50 µM (Aromatase [1]): 92%

C[C@]12C=CC(=O)C=C1C=C(CCc1ccccc1)[C@@H]1[C@@H]2CC[C@]2(C)C(=O)CC[C@@H]12
Ki (Aromatase [24]): 172 nM

Reference: ChEMBL document CHEMBL3751755, “Developing steroidal aromatase inhibitors-an effective armament to win the battle against breast cancer” (Eur J Med Chem, 2015)
